Nine compounds from PubChem BioAssay (NCI) can be followed below.

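Five concentrations, 48 hours, 96-well plates. GI50 marks 50% less growth. The concentration for full growth arrest is given as TGI.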 A value given as a limit tells only on which side of the number the result lay.

Holding throughout (test): NCI tumour cell line growth inhibition, 48 h
Assay [1] has as its system OVCAR-8 ovarian.
Assay [2] relates to LOX IMVI melanoma.
Assay [3] has as its system IGROV1 ovarian.
For assay [4], the system named is RXF 393 renal.
Assay [5] relates to DU-145 prostate.
Assay [6] has as its system HOP-92 NSCLC.
Assay [7] has as its system SNB-19 CNS.
Assay [8] relates to A498 renal.
Assay [9] relates to UACC-62 melanoma.
Assay [10] has as its system RPMI-8226 leukemia.

As to `CC1(C)N=C(N)N=C(N)N1c1ccc(OCCCCNC(=O)c2ccc(S(=O)(=O)F)cc2)c(Cl)c1`, the GI50 in assay [1] is 4.82 µM; in assay [2], 1.9 µM; in [3] it was 4.78 µM; in [4], 8.99 µM; in assay [5], 8.16 µM; in assay [6] it was > 100 µM. The GI50 in assay [7] was 13.6 µM; in assay [8], > 100 µM; in assay [9], 4.27 µM; in assay [10], 6.39 µM. For the same compound, the TGI in assay [1], in assay [2], in assay [3], in assay [4], in assay [5] and in assay [6] was > 100 µM each time. In addition, the TGI in [7], in assay [8], in assay [9] and in [10] was > 100 µM in each case.

Take `C[C@H]1CCC/C=C/[C@@H]2C[C@H](O)C[C@H]2[C@H](O)[C@@H](SC2OC(CO)C(O)C(O)C2O)CC(=O)O1` (some centres not stated): the GI50 in assay [1] was 35 µM; in assay [2] it was 35.7 µM; in [3], > 100 µM; in [4] it was 20 µM; in assay [5], > 100 µM; in assay [6], > 100 µM. Further, the GI50 was > 100 µM in [7], 20.7 µM in assay [8], 33.6 µM in assay [9] and > 100 µM in assay [10]. Besides, the TGI is > 100 µM in [1]; > 100 µM in assay [2]; > 100 µM in assay [3]; 55.8 µM in assay [4]; > 100 µM in assay [5]; > 100 µM in assay [6]. Besides, the TGI in assay [7] is > 100 µM; in [8], 63.8 µM; in [9], > 100 µM; in assay [10], > 100 µM.

Regarding `Cn1c(O)c(N=NC(N)=S)c2ccccc21`, the GI50 in assay [1] is 54.8 µM; in assay [2], 58.5 µM; in assay [4] it was 32 µM; in [5], 53.7 µM; in assay [6], 88 µM; in assay [7], > 100 µM. Also, the GI50 in assay [8] was 97.7 µM; in assay [9] it was > 100 µM; in assay [10], > 100 µM. In addition, the TGI in assay [1], in assay [2], in assay [4], in assay [5], in assay [6] and in assay [7] was > 100 µM in each case. In addition, the TGI in [8], in [9] and in assay [10] was > 100 µM throughout.

As to `O=c1[nH]cnc2nc(-c3ccc(N(CCCl)CCCl)cc3)[nH]c12`, the GI50 in [1] is 8.89 µM; in [2], 1.75 µM; in [3], 26.9 µM; in assay [4], 15.8 µM; in assay [5] it was 15.9 µM; in assay [6] it was 17.8 µM. Further, the GI50 in assay [7] is 19.3 µM; in [8], 22.2 µM; in [9] it was 0.507 µM; in assay [10], > 100 µM. In addition, the TGI in assay [1] was > 100 µM; in [2], > 100 µM; in assay [3], > 100 µM; in assay [4], 50.7 µM; in assay [5], > 100 µM; in assay [6] it was > 100 µM. Moreover, the TGI in [7] is > 100 µM; in assay [8], 70.3 µM; in assay [9], 71.6 µM; in assay [10], > 100 µM.

Regarding `COc1cc(CC2CC(c3ccc4c(c3)OCO4)OC2=O)cc(OC)c1OC` (configuration not stated), the TGI in [1], in assay [2], in assay [4], in assay [5], in [6] and in [7] was > 100 µM each time. Besides, the TGI in [8], in assay [9] and in assay [10] was > 100 µM in each case.

Consider `C[C@]12CC[C@H]3[C@@H](CCC4=C[C@@H](OC5OCC(OC6OC(CO)C(O)C(O)C6O)C(O)C5O)CC[C@@]43C=O)[C@@]1(O)CCC2C1=CC(=O)OC1` (some centres not stated), for which the TGI in [1] stood at 2.76 µM; in assay [2] it was 2.96 µM; in [3], 2.66 µM; in [4] it was 1.2 µM; in assay [5], 1.44 µM; in [6] it was 5.13 µM. Besides, the TGI in assay [7] is 11.9 µM; in assay [8], 2.99 µM; in assay [9], 4.29 µM; in assay [10], 2.75 µM.

Regarding `CCC(=O)OC1=CN2C(=NC(c3ccc(N)cc3)=CC2c2cc(OC)c(OC)c(OC)c2)S1` (configuration not stated), the GI50 was 3.39 µM in assay [1]; 3.45 µM in assay [2]; 2.31 µM in assay [3]; 2.3 µM in assay [4]; 3.58 µM in assay [5]; 1.76 µM in assay [6]. Moreover, the GI50 was 3.59 µM in assay [7], 5.3 µM in [8], 3.03 µM in [9] and 2.44 µM in assay [10]. The TGI in assay [1] was 22.3 µM; in [2], 13 µM; in assay [3], 6.63 µM; in [4], 7.98 µM; in [5] it was 13.1 µM; in assay [6] it was 7.37 µM. Besides, the TGI worked out at 16.4 µM in assay [7], 20.8 µM in assay [8], 11.8 µM in assay [9] and 10 µM in [10].

`CC(C)N(Cc1ccccc1)S(=O)(=O)c1n[nH]c(C(C)(C)C)n1`: the TGI in [1], in assay [2], in assay [3], in [4], in assay [5] and in assay [6] was > 100 µM throughout. In addition, the TGI in [7], in [8], in assay [9] and in [10] was > 100 µM throughout.

Take `COc1ccc(S(=O)(=O)n2c3ccccc3n3ncc(-c4nnc(C)o4)c23)cc1`: the GI50 in assay [1] is 1.27 µM; in assay [2], 0.561 µM; in [3], 0.634 µM; in assay [4], 0.319 µM; in [5] it was 0.916 µM; in assay [6], 0.365 µM. Further, the GI50 in assay [7] was 0.766 µM; in assay [8], 0.298 µM; in assay [9] it was 0.609 µM; in assay [10], 0.527 µM. Also, the TGI in assay [1] is > 100 µM; in assay [2], 26.1 µM; in assay [3], > 67.1 µM; in assay [4], 3.97 µM; in assay [5], > 75.3 µM; in assay [6], 57.3 µM. Moreover, the TGI in assay [7] was > 100 µM; in assay [8] it was 1.9 µM; in [9], 32.5 µM; in assay [10] it was 24.7 µM.
